The target of data set [1] is T1, human P2X7 receptor (hP2X7) (Homo sapiens, UniProt Q99572).
T1 construct: expressed in transfected cells
T1 sequence (Q99572 1-595): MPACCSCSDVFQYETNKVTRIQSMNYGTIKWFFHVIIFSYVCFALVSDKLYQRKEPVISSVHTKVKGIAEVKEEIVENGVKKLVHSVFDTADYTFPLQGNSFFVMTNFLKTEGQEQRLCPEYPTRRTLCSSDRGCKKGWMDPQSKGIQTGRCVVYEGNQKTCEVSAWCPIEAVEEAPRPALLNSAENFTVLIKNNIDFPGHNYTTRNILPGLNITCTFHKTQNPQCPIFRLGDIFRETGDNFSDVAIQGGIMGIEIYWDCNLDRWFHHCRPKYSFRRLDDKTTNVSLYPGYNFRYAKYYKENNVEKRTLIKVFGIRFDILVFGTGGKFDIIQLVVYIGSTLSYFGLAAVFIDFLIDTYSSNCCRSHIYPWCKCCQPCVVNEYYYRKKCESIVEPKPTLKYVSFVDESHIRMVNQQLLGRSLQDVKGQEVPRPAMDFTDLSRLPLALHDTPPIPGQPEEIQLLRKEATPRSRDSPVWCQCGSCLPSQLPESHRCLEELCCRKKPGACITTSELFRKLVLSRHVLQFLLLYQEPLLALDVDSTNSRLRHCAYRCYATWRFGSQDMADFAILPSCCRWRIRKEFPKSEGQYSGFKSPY
Description: Ethidium bromide accumulation assay in hP2X7-expressing HEK293 cells. The following applies: 10 μM compound with BzATP. The format is cell-based. Summed up: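 Stably transfected hP2X7 HEK293 cells at 2.5×10^6 cells/mL in HEPES buffer (pH 7.4) with sucrose or NaCl, given 10 μM compound together with BzATP, no pre-incubation, 2 h at 37 °C. Ethidium uptake read by fluorescence (ex 530/em 590 nm), as % of BzATP-alone maximum.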

Data set [2] is described as follows: Metabolic stability in microsomes, rat. The format is in vitro ADME. The following applies: for Metabolic stability, microsomes, Rat: 30 min. Here is the method:
Metabolic stability of the compounds was evaluated in rat liver microsomes (RLM). Microsomes (0.5 mg/ml) and test compound (1 μM) in 100 mM potassium phosphate buffer (pH 7.4) were preincubated by shaking at 37° C. for 5 min (100 rpm). Metabolic reactions were initiated by adding an NADPH production system (60 mM potassium phosphate buffer at pH 7.4, 1.3 mM NADP, 3.3 mM glucose-6-phosphate, 0.3 μL glucose-6-phosphate dehydrogenase (0.4 U/mL), and 3.3 mM magnesium chloride) and incubating at 37° C. 100 μL aliquots were recovered at 0, 10, 20, 30 and 60 minutes, and the reaction was terminated by the addition of two volumes of ice-cold acetonitrile (ACN). After mixing by vortex and centrifugation (14000 rpm) for 15 minutes at 4° C., the supernatant was transferred to liquid chromatography vials and analyzed by an LC-MS/MS system.

Data set [3] deals with CIPN rats (mechanical allodynia). Briefly: Antiallodynic effect (von Frey) in chemotherapy-induced peripheral neuropathy (CIPN) rats. The format is in vivo. The following applies: Rattus norvegicus, intravenous administration. The protocol:
3-1. Evaluation of In Vivo Efficacy
The antiallodynic effects (mechanical allodynia) were evaluated using rats according to a previously reported protocol. In order to evaluate the withdrawal threshold, rats (naive, SNL and CIPN) were placed on a plastic mesh floor of individual plastic cages. The rats were allowed to acclimate to the environment for 30 minutes and examined after intrathecal or intravenous administration to the caudal vein. The control group received the same volume of vehicle (intrathecal administration of saline or DMSO, intravenous administration of DMSO:PEG:PBS=1:6:3 v/v %) as the experimental groups. Evaluation of the mechanical withdrawal threshold was measured in responses to the application of calibrated von Frey filaments (Stoelting, Wood Dale, Ill., USA) to the hind paw of the rats through the holes on the mesh floor underneath the cage using the ‘up and down method’. A series of eight von Frey filaments (0.4, 0.7, 1.2, 2.0, 3.6, 5.5, 8.5, and 15 g) was applied perpendicular to the sole of the hind paw for 5 seconds while the head was bent. Active withdrawal or flinching of the paw was considered as a positive reaction. The absence of response in the rats, when a pressure was applied to 15 g von Frey filament, was used as a cut-off value. Only rats with definite allodynia (i.e., mechanical withdrawal threshold: less than 4 g after SNL or less than 5 g after CIPN) were tested. The rats after termination of the experiments were euthanized through an overdose of sevoflurane. The withdrawal threshold data for the von Frey filament test was calculated as % MPE (maximum possible effect) based on the following Calculation Equation: % MPE=[(Post-drug threshold−Post-injured baseline threshold)/(Cutoff threshold−post-injured baseline threshold)×100]. Dose-response data were analyzed using Scheffe's post hoc test and one-way analysis of variance (ANOVA).

SMILES strings stand for the structures.

The record followed here is patent US11319289B2, “5-hydroxy pyridine-based compound for use as P2X1 and P2X3 receptor antagonist and pharmaceutical composition comprising same” (GWANGJU INSTITUTE OF SCIENCE AND TECHNOLOGY, priority 2017, dated 2022).

Take `CCCc1nc(Cc2cccc(Oc3ccccc3)c2)c(C)c(C(=O)O)c1O` [Compound 29, 3-Hydroxy-5-methyl-6-(3-phenoxybenzyl)-2-propylisonicotinic acid]: in data set [1], the “hP2X7 % inhibition of ethidium bromide accumulation” value is recorded as “Inactive”. For the same compound, the “metabolic stability” value in data set [2] (after 30 minutes, species not given) is recorded as below 5%. Also, in data set [2], the “Metabolic stability, microsomes, Rat” value is recorded as 0 % remaining after 30 min.
On to `CCCc1nc(CCc2ccc(OC)cc2)c(C(=O)O)c(C(=O)O)c1O` [Compound 13d, 5-Hydroxy-2-(4-methoxyphenethyl)-6-propylpyridine-3,4-dicarboxylic acid], for which the “hP2X7 % inhibition of ethidium bromide accumulation” value in data set [1] was “inactive”.
Broadly, the ED50 is the dose at which the effect has come halfway, by size or by number of responders. The low end stands for greater potency, the high end for weaker potency. Regarding `CCCc1nc(Cc2cccc(Oc3ccccc3)c2)c(C)c(C(=O)OC)c1O` [Compound 28, Methyl 3-hydroxy-5-methyl-6-(3-phenoxybenzyl)-2-propylisonicotinate], the “Metabolic stability, microsomes, Rat” value in data set [2] was 33 % remaining after 30 min. The same compound had an ED50 in data set [3] of 2.93 mg/kg.
